From ChEMBL document CHEMBL1817637, “Viridaphin A₁ glucoside, a green pigment possessing cytotoxic and antibacterial activity from the aphid Megoura crassicauda” (J Nat Prod, 2011) come the findings set out here.

For one test, the system named is HL-60. Briefly: Cytotoxicity against human HL60 cells. It counts as functional, cell-based.
A further test has as its system Bacillus subtilis. Briefly: Antimicrobial activity against Bacillus subtilis NBRC 3134. It counts as functional.

Values after ≈ are worked out from the molar mass of the structure shown.

In general, IC50 refers to the concentration needed to halve the response being measured. A higher IC50 goes with lower potency. As for `CCCCCC[C@H]1C(=O)O[C@H](C)[C@H](NC(=O)c2cccc(NC=O)c2O)C(=O)O[C@@H](C)[C@@H]1OC(=O)CC(C)C` [ANTIMYCIN A], in the test on HL-60, it took 45 µM to reach half-maximal inhibition (IC50).
A word on the MIC: it is the lowest concentration that inhibits growth of the organism. High values mean weaker potency, low ones greater potency. `C[C@@H]1Cc2c(c(O)c3c(=O)cc4oc5c(O)cc(O[C@@H]6O[C@H](CO)[C@@H](O)[C@H](O)[C@H]6O)c6c(=O)c7c8c(c56)c4c3c2O[C@@]8(O)[C@@H](C)O[C@@H]7C)[C@@H](C)O1` [VIRIDAPHIN A1 GLUCOSIDE] registered an MIC in the test with Bacillus subtilis of 10 µg/mL (≈ 14.2 µM). This molecule also yielded a concentration for half-maximal inhibition (IC50) in the test on HL-60 of 23 µM.
